Data published in PMC10223737, “Validation of Freshly Isolated Rat Renal Cells as a Tool for Preclinical Assessment of Radiolabeled Receptor-Specific Peptide Uptake in the Kidney” (Pharmaceuticals, 2023).
Where a SMILES comes first, the peptide text is derived from it. [ ]: non-standard residue; d: D form. The star is where a group is joined. DOTA = O=C(O)CN1CCN(CC(=O)O)CCN(CC(=O)*)CCN(CC(=O)O)CC1

Key:
isolated rat renal cells [1] = experiment: Active versus passive cellular accumulation in isolated rat renal cells (37 °C vs low temperature); type: in vitro ADME; details: n = 4, Figure 6; for contribution of active accumulation to cell uptake: 37 °C (= 100%) vs low incubation temperature (2–4 °C)
From the text: An experiment was arranged to test this cellular model's potential for investigating active membrane transport processes in radiopeptide renal accumulation. […] Using the same procedure as for the radiopeptides, we tested and expressed the uptake of the other studied compounds.

isolated rat renal cells [2] = experiment: Radiopeptide uptake in freshly isolated rat renal cells; details: 1 mL suspension 2.10^6/mL + 10 µL radiopeptide (1 µg/mL), 30 min, 37 °C, cells washed four times, gamma-counter
Method: Fresh rat renal cells were isolated from the kidney using the two-phase collagenase perfusion method described by Jones et al. [11]. Male Wistar rats weighing 270–330 g were used for the experiments. The rats were housed under standard conditions (tap water, standard diet, and a 12/12 h light–dark cycle). Animals were fasted for 18–24 h prior to experiments.
As a first step, rats were anesthetized (sodium pentobarbital, 50 mg/kg), the abdomen was opened, and the right renal artery and adjacent parts of the aorta were freed. Then, the right renal artery was cannulated via the aorta. Single-pass perfusion was conducted using oxygenated calcium-free Hanks’ buffer (pH 7.4) containing EGTA (0.5 mM) and Hepes (25 mM). The second perfusion phase was performed in a recirculation system with modified Hanks’ buffer containing CaCl2 (4 mM) and collagenase (0.10 % w/v) for 18–22 min. The kidneys were removed and dispersed in cold Krebs–Henseleit buffer with Hepes (25 mM) and bovine serum albumin (2% w/v). The resulting suspension was filtered and washed with Krebs–Henseleit buffer. Following centrifugation (3 min; 80 g; 4 °C), we used the trypan blue exclusion method to determine the number of cells in the suspension. […] As a result, the cell viability at the end of the 30 min incubation interval was >85%.
Standard incubations were conducted for 30 min at 37 °C using 1 mL of cell suspension containing 2.10^6/mL renal cells. The radiopeptide uptake was determined by mixing 1 mL of cell suspension and 10 µL of the radiopeptide (1 µg/mL). After incubation, the cells were washed four times and separated. The radioactivity of the cell fractions was measured as mentioned below.

rat kidneys = details: cited from earlier work; for radiopeptide uptake in rat kidneys in vivo: radioactivity in the kidneys 60 min after i.v. administration, rats
From the text: The data on radiopeptide cellular uptake were compared with already available data on radiopeptide renal retention in rats in vivo, which were previously published by our team.

LLC-PK1 cells = experiment: Cellular uptake in LLC-PK1 cells; type: in vitro ADME, porcine; details: incubation time 30 min; Figure 5
From the text: The cellular accumulation of two somatostatin receptor-specific analogs ([^111In]In -DOTA-TATE and [^111In]In -DOTA-NOC) was compared in two renal cellular models, OK cells and LLC-PK1 cells.

Row | Compound | contribution of active accumulation to cell uptake (isolated rat renal cells [1]) | radiopeptide uptake in isolated rat cells (In Vitro) (isolated rat renal cells [2]) | radiopeptide uptake in rat kidneys in vivo (rat kidneys) | cellular accumulation in LLC-PK1 cells compared with OK cells (LLC-PK1 cells) | also measured
1 | O=C(O)C(S)C(S)C(=O)O (stereo not drawn) [[^99mTc]Tc-DMSA, dimercaptosuccinate, metal not drawn] | lowest contribution |  |  |  | 
2 | CSCC[C@H](NC(=O)[C@H](Cc1c[nH]c2ccccc12)NC(=O)CNC(=O)[C@H](Cc1ccc(O)cc1)NC(=O)[C@H](C)NC(=O)[C@@H](CCC(=O)O)NC(=O)CN1CCN(CC(=O)O)CCN(CC(=O)O)CCN(CC(=O)O)CC1)C(=O)N[C@@H](CC(=O)O)C(=O)N[C@@H](Cc1ccccc1)C(N)=O [[^111In]In-DOTA-MG11, metal not drawn] ({DOTA}-[dE]AYGWMDF-NH2) |  | 0.16 ± 0.15 %D/10^6 cells | 0.84 ± 0.35 [21] %D/g |  | 
3 | DTPA-DGlu-Glu-Glu-Glu-Glu-Glu-Ala-Tyr-Gly-Trp-Met-Asp-Phe-NH2 [[^111In]In-DTPA-MG0] |  |  |  |  | retention in the rat kidney in vivo (in words) (rat kidneys; rat, in vivo, iv): relatively high
4 | [DOTA^0, D-Phe^1, 1-Nal^3]-octreotide (disulfide) [[^111In]In-DOTA-NOC] |  | 0.75 ± 0.09 %D/10^6 cells | 2.84 ± 0.28 [19] %D/g | significantly higher | 
5 | [DOTA^0, Tyr^3, Thr^8]-octreotide [[^111In]In-DOTA-TATE] |  | 0.36 ± 0.10 %D/10^6 cells | 3.08 ± 0.42 [19] %D/g | relatively similar in both cell lines | 
6 | mercaptoacetylglycylglycylglycine [[^99mTc]Tc-MAG3] | highest contribution |  |  |  | accumulation at the low incubation temperature (isolated rat renal cells [1]; 2–4 °C, active processes blocked): negligible accumulation
